# In PMC2841647 (PLoS ONE, 2010):
# Experiments:
# mice [1] = assay: Forced swim test (FST); assay type: in vivo, mouse; conditions: acute treatment
# Experimental: (§1) Mice were treated as described above before being subjected to behavioral studies. Predictive estimation for anxiolytic properties of tat-cyclotraxin-B was assessed using open field and elevated plus-maze (EPM). Antidepressant-like action of tat-cyclotraxin-B was assessed with the forced-swim test (FST). Effects of acute treatment with tat-cyclotraxin-B on spontaneous locomotion, exploration and reactivity to a novel open field was assessed in plexiglas activity chambers (Med Associates; 45×45×31 cm). Mice were placed into the center of the open field, and activity was recorded for 30 min. Testing took place under bright ambient light conditions to increase the anxiety component of the center areas of the field (defined as the central 15×15 cm portion). Mice subjected to EPM received a double 90-interval i.v. injection of tat-cyclotraxin-B or saline buffer before being placed on the platform of the EPM and assessed for 5 min (26×5×36 cm). The diazepam control group consisted of saline buffer double-treated mice that further received a 30-min i.p. injection of diazepam (1 mg/kg). Mice were assessed for number of entries and amount of time spent in open versus closed arms. The FST procedure was applied to treated mice as described by Porsolt et al. (see ref. [60]). Mice were dropped individually into glass cylinder (height, 25 cm; diameter, 10 cm) containing 10 cm water height, maintained at 23–25°C. Animals were tested for a total of 6 min. The total time of swimming, the number of climbing attempts and the time of immobility was recorded during the last 4 min of the session, after 2 min of habituation. The paroxetine control group consisted of saline buffer double-treated mice that further received a 30-min i.p. injection of paroxetine (2 mg/kg). Behaviors were recorded on videotape and scored blind.
# TrkB in brain slices = target: T1, TrkB in brain slices (Mus musculus, UniProt P15209); assay: KIRA-ELISA in brain slices incubated with peptide; assay type: cell-based; conditions: 1 µM directly added to the slice, BDNF 4 nM
# T1 construct: KIRA-ELISA analysis of brain TrkB receptors from mice; from tissue; host or cells: adult Swiss mouse brain, 300-µm coronal slices
# Experimental: TrkB activity was quantified using the previously described KIRA-ELISA assay with slight modifications. Cortical neurons were seeded on polyornithin-coated flat-bottom 96-well culture plates (12×10^4 cells per well) and cultured eight days at 37°C in 5% CO2. TetOn-rhTrkB cells were seeded on flat-bottom 96-well culture plates (4×10^4 cells per well) and incubated overnight with 1000 ng/ml doxycycline (Figs. S1,S2) except when indicated. Fluorescence levels in TetOn-rhTrkB cells were verified before each assay. […] Solubilized membranes were transferred for 2 h at room temperature onto ELISA microtiter plate (Nunc Maxisorp) pre-coated overnight at 4°C with appropriate antibodies [polyclonal anti-GFP (1∶5000, Clontech) for TetOn-rhTrkB, polyclonal anti-TrkB (1 µg/ml, Upstate) for cultured neurons and brain slices, for phosphorylation assays; monoclonal anti-GFP (1∶3000, Chemicon) for TetOn-rhTrkB, monoclonal anti-TrkB (1∶1000, BD Biosciences) for cultured neurons and brain slices, for total TrkB quantification]. […] Absorbance was read at 450 nm after addition of 3,3′,5′,5-tetramethyl-benzidine substrate (Sigma) and acidification with 1N hydrochloric acid.
# mice [2] = assay: Elevated plus-maze (EPM); assay type: in vivo, mouse; conditions: vs saline
# Experimental: as §1
# T1 sequence (P15209 32-821): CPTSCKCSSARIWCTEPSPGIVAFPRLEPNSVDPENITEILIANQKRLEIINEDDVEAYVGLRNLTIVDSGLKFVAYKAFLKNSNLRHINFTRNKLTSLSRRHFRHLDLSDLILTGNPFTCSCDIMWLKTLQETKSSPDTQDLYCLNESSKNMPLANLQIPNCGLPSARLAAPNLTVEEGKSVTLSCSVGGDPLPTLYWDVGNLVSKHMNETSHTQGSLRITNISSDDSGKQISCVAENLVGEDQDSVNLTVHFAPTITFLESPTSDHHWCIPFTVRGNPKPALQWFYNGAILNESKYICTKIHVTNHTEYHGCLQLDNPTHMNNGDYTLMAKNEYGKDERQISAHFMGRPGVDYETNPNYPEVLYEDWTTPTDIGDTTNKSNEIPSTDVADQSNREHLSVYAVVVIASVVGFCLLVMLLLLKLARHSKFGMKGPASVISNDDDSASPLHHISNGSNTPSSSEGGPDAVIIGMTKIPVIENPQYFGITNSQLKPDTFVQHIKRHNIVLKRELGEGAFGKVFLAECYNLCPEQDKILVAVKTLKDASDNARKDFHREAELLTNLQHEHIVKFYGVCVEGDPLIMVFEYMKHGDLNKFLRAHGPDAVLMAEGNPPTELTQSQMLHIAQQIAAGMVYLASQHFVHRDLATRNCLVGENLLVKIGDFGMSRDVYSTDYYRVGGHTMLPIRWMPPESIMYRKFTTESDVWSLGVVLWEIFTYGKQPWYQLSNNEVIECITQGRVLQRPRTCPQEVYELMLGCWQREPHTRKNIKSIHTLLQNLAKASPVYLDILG
sequence,measurement,setting,value
YGRKKRRQRRRCNPMGYTKEGC [tat-cyclotraxin-B],FST swimming capabilities,mice [1],not affected
same,FST climbing attempts,mice [1]; vs saline,not observed
same,FST time of immobility,mice [1]; vs saline,not observed
same,"decrease in TrkB activity, slice incubation",TrkB in brain slices,52.0±3.9%
same,EPM number of entries in open arms,mice [2],significantly increased
same,EPM time spent in open arms,mice [2],significantly increased
